Data taken from patent US20230085307A1, “PYRIDAZINONE COMPOUND AND HERBICIDE” (NISSAN CHEMICAL CORPORATION, priority 2019, published 2023).

Experiments:
[1] = system: green foxtail; assay: Test Example 5: herbicidal effect by foliage application, plastic box (Table 20, symbol G); format: in vivo, green foxtail (Setaria viridis)
How it was run: (§1)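 Plants sown in sterilized diluvial soil and grown 14 days in a greenhouse at 25° C to 30° C, then sprayed on the foliage with the compound's emulsion diluted in water to a predetermined herbicide amount. Injury to weeds and crops scored three weeks after application on a visual rating scale.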

[2] = system: southern crabgrass; assay: Test Example 5: herbicidal effect by foliage application, plastic box (Table 20, symbol F); format: in vivo, southern crabgrass (Digitaria ciliaris)
How it was run: as §1

[3] = system: green foxtail; assay: Test Example 4: herbicidal effect by soil treatment (Table 19, symbol G); format: in vivo, green foxtail (Setaria viridis); conditions: amount of applied herbicide 320 g/ha
How it was run: (§2)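 Three weeks of greenhouse growth at 25° C. to 30° C. followed a uniform surface spray of water-diluted emulsion at a predetermined herbicide amount. Seeds had been sown beforehand under about 1.5 cm of sterilized diluvial soil. Grading followed criteria set out in an earlier test.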

[4] = system: Chinese sprangletop; assay: Test Example 3: herbicidal effect by foliage application, Wagner pot (Table 18, symbol D); format: in vivo, chinese sprangletop (Leptochloa chinensis); conditions: 320 g/ha
How it was run: (§3)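 Plants were sown in alluvial soil held under 0.1–0.5 cm standing water and grown 14 days in a greenhouse at 25–30 °C. An emulsifiable formulation, water-diluted to the set dose, was then sprayed onto the foliage, and effects were scored three weeks later using previously defined criteria.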

[5] = system: velvetleaf; assay: Test Example 5: herbicidal effect by foliage application, plastic box (Table 20, symbol M); format: in vivo, velvetleaf (Abutilon theophrasti)
How it was run: as §1

[6] = system: velvetleaf; assay: Test Example 4: herbicidal effect by soil treatment (Table 19, symbol M); format: in vivo, velvetleaf (Abutilon theophrasti); conditions: amount of applied herbicide 320 g/ha
How it was run: as §2

[7] = system: redroot pigweed; assay: Test Example 5: herbicidal effect by foliage application, plastic box (Table 20, symbol N); format: in vivo, redroot pigweed (Amaranthus retroflexus); conditions: amount of applied herbicide 320 g/ha; foliage application after 14-day growth; evaluated three weeks after application
How it was run: as §1

[8] = system: blackgrass; assay: Test Example 4: herbicidal effect by soil treatment (Table 19, symbol J); format: in vivo, blackgrass (Alopecurus myosuroides); conditions: amount of applied herbicide 320 g/ha
How it was run: as §2

[9] = system: barnyard grass; assay: Test Example 4: herbicidal effect by soil treatment (Table 19, symbol H); format: in vivo, barnyard grass (Echinochloa crus-galli); conditions: amount of applied herbicide 320 g/ha
How it was run: as §2

[10] = system: lambsquarters; assay: Test Example 4: herbicidal effect by soil treatment (Table 19, symbol O); format: in vivo, lambsquarters (Chenopodium album); conditions: amount of applied herbicide 320 g/ha
How it was run: as §2

[11] = system: barnyard grass; assay: Test Example 5: herbicidal effect by foliage application, plastic box (Table 20, symbol H); format: in vivo, barnyard grass (Echinochloa crus-galli)
How it was run: as §1

[12] = system: persian speedwell; assay: Test Example 5: herbicidal effect by foliage application, plastic box (Table 20, symbol R); format: in vivo, Persian speedwell (Veronica persica)
How it was run: as §1

[13] = system: redroot pigweed; assay: Test Example 4: herbicidal effect by soil treatment (Table 19, symbol N); format: in vivo, redroot pigweed (Amaranthus retroflexus); conditions: amount of applied herbicide 320 g/ha
How it was run: as §2

[14] = system: barnyard grass; assay: Test Example 3: herbicidal effect by foliage application, Wagner pot (Table 18, symbol H); format: in vivo, barnyard grass (Echinochloa crus-galli); conditions: 320 g/ha
How it was run: as §3

[15] = system: southern crabgrass; assay: Test Example 4: herbicidal effect by soil treatment (Table 19, symbol F); format: in vivo, southern crabgrass (Digitaria ciliaris); conditions: amount of applied herbicide 320 g/ha
How it was run: as §2

[16] = system: Italian ryegrass; assay: Test Example 4: herbicidal effect by soil treatment (Table 19, symbol K); format: in vivo, Italian ryegrass (Lolium multiflorum); conditions: amount of applied herbicide 320 g/ha
How it was run: as §2

[17] = system: lambsquarters; assay: Test Example 5: herbicidal effect by foliage application, plastic box (Table 20, symbol O); format: in vivo, lambsquarters (Chenopodium album)
How it was run: as §1

[18] = system: wild oat; assay: Test Example 4: herbicidal effect by soil treatment (Table 19, symbol I); format: in vivo, wild oat (Avena fatua); conditions: amount of applied herbicide 320 g/ha
How it was run: as §2

[19] = system: windgrass; assay: Test Example 5: herbicidal effect by foliage application, plastic box (Table 20, symbol L); format: in vivo, windgrass (Apera spica-venti)
How it was run: as §1

[20] = system: Japanese bulrush; assay: Test Example 1: herbicidal activity, application before weed generation under submerged conditions (Table 16, symbol B); format: in vivo, Japanese bulrush (Schoenoplectus juncoides); conditions: amount of applied herbicide 320 g/ha
How it was run: (§4)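 Emulsion formulation, water-diluted to set dose, was put onto the flooded surface (4 cm depth, alluvial soil) the same day weeds were sown and 2.5-leaf rice transplanted. After 3 weeks at 25-30 °C under glass, each species was rated 0 (≤5% kill) to 5 (≥90% kill).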

[21] = system: chickweed; assay: Test Example 5: herbicidal effect by foliage application, plastic box (Table 20, symbol P); format: in vivo, common chickweed (Stellaria media); conditions: amount of applied herbicide 320 g/ha; foliage application after 14-day growth; evaluated three weeks after application
How it was run: as §1

[22] = system: chickweed; assay: Test Example 4: herbicidal effect by soil treatment (Table 19, symbol P); format: in vivo, common chickweed (Stellaria media); conditions: amount of applied herbicide 320 g/ha
How it was run: as §2

[23] = system: wild oat; assay: Test Example 5: herbicidal effect by foliage application, plastic box (Table 20, symbol I); format: in vivo, wild oat (Avena fatua)
How it was run: as §1

[24] = system: blackgrass; assay: Test Example 5: herbicidal effect by foliage application, plastic box (Table 20, symbol J); format: in vivo, blackgrass (Alopecurus myosuroides)
How it was run: as §1

[25] = system: Italian ryegrass; assay: Test Example 5: herbicidal effect by foliage application, plastic box (Table 20, symbol K); format: in vivo, Italian ryegrass (Lolium multiflorum)
How it was run: as §1

[26] = system: late watergrass; assay: Test Example 1: herbicidal activity, application before weed generation under submerged conditions (Table 16, symbol A); format: in vivo, late watergrass (Echinochloa oryzicola); conditions: amount of applied herbicide 320 g/ha
How it was run: as §4

[27] = system: windgrass; assay: Test Example 4: herbicidal effect by soil treatment (Table 19, symbol L); format: in vivo, windgrass (Apera spica-venti); conditions: amount of applied herbicide 320 g/ha
How it was run: as §2

[28] = system: rice flat sedge; assay: Test Example 3: herbicidal effect by foliage application, Wagner pot (Table 18, symbol E); format: in vivo, rice flat sedge (Cyperus iria); conditions: 320 g/ha
How it was run: as §3

[29] = system: oval-leafed pondweed; assay: Test Example 1: herbicidal activity, application before weed generation under submerged conditions (Table 16, symbol C); format: in vivo, oval-leafed pondweed (Monochoria vaginalis); conditions: amount of applied herbicide 320 g/ha
How it was run: as §4

[30] = system: persian speedwell; assay: Test Example 4: herbicidal effect by soil treatment (Table 19, symbol R); format: in vivo, Persian speedwell (Veronica persica); conditions: amount of applied herbicide 320 g/ha
How it was run: as §2

[31] = amount of applied herbicide 320 g/ha, foliage application after 14-day growth, evaluated three weeks after application
[32] = foliage application, 320 g/ha, three weeks after application

Row | SMILES | G: green foxtail, herbicidal effect grade [3] | herbicidal effect on Chinese sprangletop (D) [4] | M: velvetleaf, herbicidal effect grade [6] | J: blackgrass, herbicidal effect grade [8] | H: barnyard grass, herbicidal effect grade [9] | O: lambsquarters, herbicidal effect grade [10] | N: redroot pigweed, herbicidal effect grade [13] | herbicidal effect on barnyard grass (H) [14] | F: southern crabgrass, herbicidal effect grade [15] | K: Italian ryegrass, herbicidal effect grade [16] | I: wild oat, herbicidal effect grade [18] | Herbicidal effect, B: Japanese bulrush [20] | P: chickweed, herbicidal effect grade [22] | Herbicidal effect, A: late watergrass [26] | herbicidal effect on rice flat sedge (E) [28] | Herbicidal effect, C: oval-leafed pondweed [29] | other results
1 | CCCC(=O)Oc1c(C)nn(C)c(=O)c1-c1c(-c2ccc3c(c2)OCCO3)sc2cc(F)c(F)cc12 [5-038] | 0 (Herbicidal rate of 5% or less (almost no effect)) | 2 (Herbicidal rate of 20% or more and less than 40%) | 0 (Herbicidal rate of 5% or less (almost no effect)) | 0 (Herbicidal rate of 5% or less (almost no effect)) | 0 (Herbicidal rate of 5% or less (almost no effect)) | 4 (Herbicidal rate of 70% or more and less than 90%) | 2 (Herbicidal rate of 20% or more and less than 40%) | 2 (Herbicidal rate of 20% or more and less than 40%) | 0 (Herbicidal rate of 5% or less (almost no effect)) | 0 (Herbicidal rate of 5% or less (almost no effect)) | 0 (Herbicidal rate of 5% or less (almost no effect)) | 3 (Herbicidal rate of 40% or more and less than 70%) | 0 (Herbicidal rate of 5% or less (almost no effect)) | 4 (Herbicidal rate of 70% or more and less than 90%) | 4 (Herbicidal rate of 70% or more and less than 90%) | 4 (Herbicidal rate of 70% or more and less than 90%) | Herbicidal effect by foliage application, G: green foxtail [1, 31]: 0 (Herbicidal rate of 5% or less (almost no effect)); Herbicidal effect by foliage application, F: southern crabgrass [2, 31]: 0 (Herbicidal rate of 5% or less (almost no effect)); Herbicidal effect by foliage application, M: velvetleaf [5, 31]: 3 (Herbicidal rate of 40% or more and less than 70%); Herbicidal effect by foliage application, N: redroot pigweed [7]: 2 (Herbicidal rate of 20% or more and less than 40%); Herbicidal effect by foliage application, H: barnyard grass [11, 31]: 0 (Herbicidal rate of 5% or less (almost no effect)); Herbicidal effect by foliage application, R: persian speedwell [12, 31]: 5 (Herbicidal rate of 90% or more (almost completely withered)); Herbicidal effect by foliage application, O: lambsquarters [17, 31]: 1 (Herbicidal rate of 5% or more and less than 20%); Herbicidal effect by foliage application, L: windgrass [19, 31]: 0 (Herbicidal rate of 5% or less (almost no effect)); Herbicidal effect by foliage application, P: chickweed [21]: 5 (Herbicidal rate of 90% or more (almost completely withered)); Herbicidal effect by foliage application, I: wild oat [23, 31]: 0 (Herbicidal rate of 5% or less (almost no effect)); Herbicidal effect by foliage application, J: blackgrass [24, 31]: 0 (Herbicidal rate of 5% or less (almost no effect)); Herbicidal effect by foliage application, K: Italian ryegrass [25, 31]: 0 (Herbicidal rate of 5% or less (almost no effect)); L: windgrass, herbicidal effect grade [27]: 0 (Herbicidal rate of 5% or less (almost no effect))
2 | COc1cc2sc(-c3ccccc3OC)c(-c3c(O)c(C)nn(C)c3=O)c2cc1F [5-064] | 4 (Herbicidal rate of 70% or more and less than 90%) | 2 (Herbicidal rate of 20% or more and less than 40%) | 2 (Herbicidal rate of 20% or more and less than 40%) | 1 (Herbicidal rate of 5% or more and less than 20%) | 4 (Herbicidal rate of 70% or more and less than 90%) | 3 (Herbicidal rate of 40% or more and less than 70%) | 4 (Herbicidal rate of 70% or more and less than 90%) | 5 (Herbicidal rate of 90% or more (almost completely withered)) | 3 (Herbicidal rate of 40% or more and less than 70%) | 0 (Herbicidal rate of 5% or less (almost no effect)) | 0 (Herbicidal rate of 5% or less (almost no effect)) | 0 (Herbicidal rate of 5% or less (almost no effect)) | 4 (Herbicidal rate of 70% or more and less than 90%) | 2 (Herbicidal rate of 20% or more and less than 40%) | 5 (Herbicidal rate of 90% or more (almost completely withered)) | 0 (Herbicidal rate of 5% or less (almost no effect)) | herbicidal effect on green foxtail (G) [1, 32]: 5 (Herbicidal rate of 90% or more (almost completely withered)); herbicidal effect on southern crabgrass (F) [2, 32]: 4 (Herbicidal rate of 70% or more and less than 90%); R: persian speedwell, herbicidal effect grade [30]: 5 (Herbicidal rate of 90% or more (almost completely withered)); herbicidal effect on velvetleaf (M) [5, 32]: 4 (Herbicidal rate of 70% or more and less than 90%); herbicidal effect on barnyard grass (H) [11, 32]: 4 (Herbicidal rate of 70% or more and less than 90%); herbicidal effect on persian speedwell (R) [12, 32]: 5 (Herbicidal rate of 90% or more (almost completely withered)); herbicidal effect on lambsquarters (O) [17, 32]: 3 (Herbicidal rate of 40% or more and less than 70%); herbicidal effect on windgrass (L) [19, 32]: 5 (Herbicidal rate of 90% or more (almost completely withered)); herbicidal effect on wild oat (I) [23, 32]: 4 (Herbicidal rate of 70% or more and less than 90%); herbicidal effect on blackgrass (J) [24, 32]: 4 (Herbicidal rate of 70% or more and less than 90%); herbicidal effect on Italian ryegrass (K) [25, 32]: 3 (Herbicidal rate of 40% or more and less than 70%)
